Experimental data published in patent US4783481A, “Rodenticides” (priority 1983, dated 1988).

Legend:
[1] = Analysis of relative proportions of cis and trans isomers in carcasses of target and non-target species; format: in vivo, foxes, cats, hawks, owls and crows; settings: mixed isomers dosed
Description: We have now discovered that although there is little to choose between the isomers in terms of their rodenticidal effectiveness there is a significant difference in their persistence in the tissues of nonrodent non-target species which may be exposed to accidental ingestion of brodifacoum.
Species in which this selective depuration has been noted include scavanging and preditor mammals such as foxes and cats, and birds such as hawks, owls and crows. Thus if non-target species such as these consume the carcasses of rodents which have been killed by the use of the invention compositions they will be able to metabolise the residues of the active ingredient and not be at risk through bioaccumulation of a toxic dose by subsequently consuming further contaminated carcasses.

[2] = Selective depuration of isomer pairs from vole tissue, Example 4; format: in vivo, meadow voles (Microtus penusylvanicus); settings: for Amount of isomer pair recovered from the tissue / concentration at 24 h / concentration at 48 h / concentration at 72 h / concentration at 96 h / concentration at 120 h: 10 ppm pellets, 0.54 mg/kg of A-D mixture consumed; for half-life / concentration at 24 h / concentration at 48 h / concentration at 72 h / concentration at 96 h / concentration at 120 h: po; for half-life: 0.54 mg/kg, calculated; for half-life / depuration: vole tissue; for depuration: in words; for concentration at 24 h / concentration at 48 h / concentration at 72 h / concentration at 96 h / concentration at 120 h: vole, tissue, read-out: Amount of isomer pair recovered from the tissue; for Ratio: isomers C and D to isomers A and B
Experimental: This Example illustrates the selective depuration of the active ingredient of the invention compositions by meadow voles (Microtus penusylvanicus).
Fasted wild voles were given pellets containing 10 ppm of mixture (approximately 1:1:1:1 by weight) of isomers A, B, C and D of brodifacoum until they had consumed 0.54 mg of active ingredient per kilogram of body weight. Voles were killed at 0, 1, 2, 3, 4, 5 and 14 days after dosing and the relative amounts of the A, B isomer pair and the C, D isomer pair remain in the vole tissue determined by chromatographic means.

[3] = system: pheasants (Phasianus colchicus); format: in vivo; settings: pheasants fed pelleted formulations; vs mixture of all four isomers (approximately 1:1:1:1)
Description: (§1) The compositions and methods of the invention may be successfully used to control rodents whilst minimising the hazard to non-target species as compared with the use of known compositions. […] This illustrates the improved safety of the invention compositions in the case of accidental ingestion of rodenticide bait by a non-target species.

cats = test: in vivo; format: in vivo; settings: diet simulating contaminated carcase
Description: as §1

in vivo = format: in vivo; settings: cat, in vivo, po; cats; similar diet with corresponding quantity of all four isomers
Description: as §1

| SMILES | Amount of isomer pair recovered from the tissue ([2]; 0 days after dosing) | half-life [2] | depuration [2] | concentration at 24 h ([2]; 1 day after dosing) | concentration at 48 h ([2]; 2 days after dosing) | concentration at 72 h ([2]; 3 days after dosing) | concentration at 96 h ([2]; 4 days after dosing) | concentration at 120 h ([2]; 5 days after dosing) | prothrombin time (cats) | also measured |
| --- | --- | --- | --- | --- | --- | --- | --- | --- | --- | --- |
| O=c1oc2ccccc2c(O)c1[C@H]1C[C@@H](c2ccc(-c3ccc(Br)cc3)cc2)Cc2ccccc21 (relative stereo) [Isomers A and B, reference compound] | 0.15 mg/kg | > 336 h | retained in the tissue | 147 ng/g | 114 ng/g | 114 ng/g | 123 ng/g | 101 ng/g | – | selective depuration / metabolism [1]: not metabolised at a sufficient rate to avoid the lethal consequences; selective depuration / metabolism ([1]; listed as cis isomer): relatively metabolically more stable |
| O=c1oc2ccccc2c(O)c1[C@@H]1C[C@@H](c2ccc(-c3ccc(Br)cc3)cc2)Cc2ccccc21 (relative stereo) [Isomers C and D] | 0.122 mg/kg | ~24 h | rapid depuration | 52 ng/g | 24 ng/g | 14 ng/g | 11 ng/g | 5 ng/g | temporary increase in prothrombin time which returned to normal after a short period | selective depuration / metabolism ([1]; listed as isomers C and D of brodifacoum): rapid depuration; selective depuration / metabolism ([1]; listed as trans isomer): selective metabolism of most or all of the trans isomer; survival rate [3]: much higher survival rate; mortality (cats; in words): no mortality; Ratio ([2]; 0 days after dosing): 0.818; Ratio ([2]; 1 day after dosing): 0.354; Ratio ([2]; 2 days after dosing): 0.211; Ratio ([2]; 3 days after dosing): 0.123; Ratio ([2]; 4 days after dosing): 0.089; Ratio ([2]; 5 days after dosing): 0.05 |
| O=c1oc2ccccc2c(O)c1C1CC(c2ccc(-c3ccc(Br)cc3)cc2)Cc2ccccc21 (stereo not drawn) [all four brodifacoum isomers, reference compound] | – | – | – | – | – | – | – | – | increased prothrombin times which did not return to normal | mortality (in vivo): 100% |
